The values that follow come from patent publication US10479795B2 (Incyte Corporation, priority 2016, dated 2019).

The subject of experiment [1] is Phosphorylated Ribosomal Protein S6 (RPS6). Put plainly: THP-1 RPS6 ELISA Assay. The experiment is classed as cell-based, Human. Conditions: THP-1 cells, read-out: PI3Kγ_THP1_RPS6_ELISA IC50. In short, it runs like this:
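Serum-starved THP-1 cells were preincubated with a concentration range of compound for 2 h at 37 °C, then stimulated with 10 nM MCP-1 for 15 min. Phospho-RPS6 in lysates was quantified by ELISA at 450 nm. IC50 came from percent inhibition versus log inhibitor concentration.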
A general note: An ELISA detects its analyte on a solid surface through an enzyme-linked reagent.

The target in experiment [2] is PI3Kγ (p110γ) Recombinant Human Protein (Homo sapiens (Human), UniProt P48736). The experiment is described as follows: PI3K-γ Scintillation Proximity Assay. The experiment is classed as biochemical. Conditions: read-out: PI3Kγ IC50. The essentials:
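Recombinant human p110γ assayed at room temperature in 20 mM MOPS pH 6.7, 10 mM MgCl2, 5 mM DTT, 0.03% CHAPS, 2% DMSO, with 20 μM PIP2 and 2 μM ATP plus [γ-33P]ATP. Product captured on WGA SPA beads overnight and counted; IC50 fitted from % of solvent-control activity versus log inhibitor concentration.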

Experiment [3] concerns the target PI3Kδ (p110δ/p85α) Recombinant Human Protein (Homo sapiens (Human), UniProt O00329). The experiment is described as follows: PI3Kδ Scintillation Proximity Assay. The experiment is classed as biochemical. The essentials: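 Recombinant human p110δ/p85α (3.4 nM) phosphorylates 20 μM di-octanoyl PIP2 using 2 μM ATP spiked with [γ-33P]ATP, 120 min, room temperature, pH 6.7, 2% DMSO. Product measured by scintillation proximity; IC50 from dose-response fit.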
On the technique in general: Scintillation proximity formats need no separation of bound from free tracer.

Counter-ions that a name gives are not always drawn. Like-named read-outs stand apart in the source and are kept apart here.

Chain of PI3Kγ (p110γ) Recombinant Human Protein (P48736 whole entry): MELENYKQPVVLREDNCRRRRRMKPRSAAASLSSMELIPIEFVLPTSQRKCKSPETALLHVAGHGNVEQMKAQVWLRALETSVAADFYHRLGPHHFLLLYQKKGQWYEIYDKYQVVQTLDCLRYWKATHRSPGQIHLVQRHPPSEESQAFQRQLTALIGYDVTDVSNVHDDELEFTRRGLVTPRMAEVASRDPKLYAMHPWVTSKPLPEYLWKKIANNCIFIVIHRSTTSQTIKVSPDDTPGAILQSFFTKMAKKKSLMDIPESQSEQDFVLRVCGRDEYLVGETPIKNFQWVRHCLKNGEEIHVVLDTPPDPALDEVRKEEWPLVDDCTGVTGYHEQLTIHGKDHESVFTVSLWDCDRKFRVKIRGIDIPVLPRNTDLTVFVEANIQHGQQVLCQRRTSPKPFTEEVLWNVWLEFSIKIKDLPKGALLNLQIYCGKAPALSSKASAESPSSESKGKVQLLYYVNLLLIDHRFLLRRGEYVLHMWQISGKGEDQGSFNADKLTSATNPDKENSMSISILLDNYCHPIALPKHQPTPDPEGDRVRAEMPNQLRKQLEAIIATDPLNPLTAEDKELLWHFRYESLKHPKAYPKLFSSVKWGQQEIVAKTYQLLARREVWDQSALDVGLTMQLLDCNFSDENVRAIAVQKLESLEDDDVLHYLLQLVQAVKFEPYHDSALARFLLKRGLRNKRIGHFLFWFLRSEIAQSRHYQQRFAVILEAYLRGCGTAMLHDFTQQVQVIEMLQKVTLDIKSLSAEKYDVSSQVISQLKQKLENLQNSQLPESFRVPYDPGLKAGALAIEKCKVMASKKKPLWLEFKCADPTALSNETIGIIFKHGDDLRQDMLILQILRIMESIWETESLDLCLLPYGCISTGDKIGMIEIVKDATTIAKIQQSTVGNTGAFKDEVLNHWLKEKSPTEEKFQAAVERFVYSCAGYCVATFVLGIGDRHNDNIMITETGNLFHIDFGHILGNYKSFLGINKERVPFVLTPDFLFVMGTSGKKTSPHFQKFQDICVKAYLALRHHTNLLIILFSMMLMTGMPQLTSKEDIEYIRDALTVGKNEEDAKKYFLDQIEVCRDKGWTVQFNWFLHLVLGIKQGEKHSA
Chain of PI3Kδ (p110δ/p85α) Recombinant Human Protein (O00329 whole entry): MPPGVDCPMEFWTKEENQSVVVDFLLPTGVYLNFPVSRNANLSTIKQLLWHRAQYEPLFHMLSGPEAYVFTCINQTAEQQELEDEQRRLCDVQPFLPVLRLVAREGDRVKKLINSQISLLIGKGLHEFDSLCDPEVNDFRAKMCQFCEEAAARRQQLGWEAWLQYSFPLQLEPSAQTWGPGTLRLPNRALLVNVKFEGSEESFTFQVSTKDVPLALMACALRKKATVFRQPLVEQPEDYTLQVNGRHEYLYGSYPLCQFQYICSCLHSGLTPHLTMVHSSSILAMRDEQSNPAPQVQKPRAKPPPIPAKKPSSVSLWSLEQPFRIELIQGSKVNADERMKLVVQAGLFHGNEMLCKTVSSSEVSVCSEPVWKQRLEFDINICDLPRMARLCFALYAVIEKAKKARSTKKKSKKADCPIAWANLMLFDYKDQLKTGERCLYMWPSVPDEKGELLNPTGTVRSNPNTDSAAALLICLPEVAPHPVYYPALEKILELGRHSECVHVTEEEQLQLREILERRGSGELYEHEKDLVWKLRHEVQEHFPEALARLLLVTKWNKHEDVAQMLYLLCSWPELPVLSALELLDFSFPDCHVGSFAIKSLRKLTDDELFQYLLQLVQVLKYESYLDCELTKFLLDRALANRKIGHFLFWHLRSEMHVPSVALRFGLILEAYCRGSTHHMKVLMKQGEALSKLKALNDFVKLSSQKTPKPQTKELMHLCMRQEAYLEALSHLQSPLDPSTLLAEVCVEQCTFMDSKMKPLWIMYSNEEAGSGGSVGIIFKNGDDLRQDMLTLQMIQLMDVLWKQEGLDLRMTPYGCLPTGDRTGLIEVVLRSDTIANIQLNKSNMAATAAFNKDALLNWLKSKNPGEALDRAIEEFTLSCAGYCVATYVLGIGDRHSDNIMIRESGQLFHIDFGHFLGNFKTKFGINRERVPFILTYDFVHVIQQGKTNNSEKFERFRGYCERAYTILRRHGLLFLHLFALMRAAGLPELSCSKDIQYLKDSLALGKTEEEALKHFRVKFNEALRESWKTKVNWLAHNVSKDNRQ
Chain of PI3Kδ (p110δ/p85α) Recombinant Human Protein (P27986 whole entry partner): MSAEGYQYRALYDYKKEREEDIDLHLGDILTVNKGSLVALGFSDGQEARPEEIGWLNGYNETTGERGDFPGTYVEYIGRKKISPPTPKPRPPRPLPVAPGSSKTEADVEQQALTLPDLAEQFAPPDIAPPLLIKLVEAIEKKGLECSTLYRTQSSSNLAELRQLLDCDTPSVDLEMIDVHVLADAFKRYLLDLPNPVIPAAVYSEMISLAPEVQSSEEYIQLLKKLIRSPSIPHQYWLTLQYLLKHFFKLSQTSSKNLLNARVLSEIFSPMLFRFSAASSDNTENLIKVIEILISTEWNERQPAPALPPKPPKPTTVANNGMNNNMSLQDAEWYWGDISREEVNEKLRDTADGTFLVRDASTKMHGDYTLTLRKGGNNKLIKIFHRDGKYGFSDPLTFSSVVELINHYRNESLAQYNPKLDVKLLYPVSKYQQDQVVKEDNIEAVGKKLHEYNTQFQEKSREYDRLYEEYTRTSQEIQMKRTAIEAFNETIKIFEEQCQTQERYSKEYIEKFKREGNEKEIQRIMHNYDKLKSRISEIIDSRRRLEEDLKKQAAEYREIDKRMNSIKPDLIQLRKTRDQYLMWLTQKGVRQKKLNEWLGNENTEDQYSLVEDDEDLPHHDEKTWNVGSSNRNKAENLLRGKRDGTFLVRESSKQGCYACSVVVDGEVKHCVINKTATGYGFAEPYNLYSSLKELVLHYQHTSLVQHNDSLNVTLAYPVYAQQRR

What is called IC50 is the concentration that inhibits the measured activity by half. Regarding `Cc1ccc(S(=O)(=O)NCC2(C#N)CC2)cc1-c1cnc2c(N)ncnn12` [Example 101, 3-(4-Aminoimidazo[1,2-f][1,2,4]triazin-7-yl)-N-((1-cyanocyclopropyl)methyl)-4-methylbenzenesulfonamide trifluoroacetate salt], the concentration for half-maximal inhibition (IC50) in experiment [1] is greater than 1000 nM; in experiment [2], less than 100 nM; in experiment [3], 500 to 2000 nM.
For `Cc1ccc(S(=O)(=O)NCC2(C#N)CCC2)cc1-c1cnc2c(N)ncnn12` [Example 102, 3-(4-Aminoimidazo[1,2-f][1,2,4]triazin-7-yl)-N-((1-cyanocyclobutyl)methyl)-4-methylbenzenesulfonamide trifluoroacetate salt] the same measures were 100 to 500 nM, less than 100 nM and 100 to 500 nM.
For `CC(=O)N1CC(NS(=O)(=O)c2ccc(C)c(-c3cnc4c(N)ncnn34)c2)C1` [Example 103, N-(1-Acetylazetidin-3-yl)-3-(4-aminoimidazo[1,2-f][1,2,4]triazin-7-yl)-4-methylbenzenesulfonamide trifluoroacetate salt], the IC50 in experiment [1] was greater than 1000 nM; in experiment [2] it was less than 100 nM; in experiment [3], 500 to 2000 nM.
Turning to `Cc1ccc(S(=O)(=O)NC2COC2)cc1-c1cnc2c(N)ncnn12` [Example 104, 3-(4-Aminoimidazo[1,2-f][1,2,4]triazin-7-yl)-4-methyl-N-(oxetan-3-yl)benzenesulfonamide], the figures for the IC50 in experiment [1], in experiment [2] and in experiment [3] were 500 to 1000 nM, less than 100 nM and 500 to 2000 nM, respectively.
For `Cc1ccc(S(=O)(=O)NC23CC(C2)C3)cc1-c1cnc2c(N)ncnn12` [Example 106, 3-(4-Aminoimidazo[1,2-f][1,2,4]triazin-7-yl)-N-(bicyclo[1.1.1]pentan-1-yl)-4-methylbenzenesulfonamide trifluoroacetate salt] the same measures were greater than 1000 nM, less than 100 nM and 500 to 2000 nM.
For `Cc1ccc(S(=O)(=O)NC23CCC(CO)(C2)C3)cc1-c1cnc2c(N)ncnn12` [Example 107, 3-(4-Aminoimidazo[1,2-f][1,2,4]triazin-7-yl)-N-(4-(hydroxymethyl)bicyclo[2.1.1]hexan-1-yl)-4-methylbenzenesulfonamide trifluoroacetate salt] the same measures were 500 to 1000 nM, less than 100 nM and 100 to 500 nM.
For `Cc1ccc(S(=O)(=O)NC23CCC(CC#N)(C2)C3)cc1-c1cnc2c(N)ncnn12` [Example 108, 3-(4-Aminoimidazo[1,2-f][1,2,4]triazin-7-yl)-N-(4-(cyanomethyl)bicyclo[2.1.1]hexan-1-yl)-4-methylbenzenesulfonamide trifluoroacetate salt] the same measures were 100 to 500 nM, less than 100 nM and 100 to 500 nM.
As to `Cc1ccc(S(=O)(=O)NC23CCC(C(=O)O)(C2)C3)cc1-c1cnc2c(N)ncnn12` [Example 109, 4-(3-(4-Aminoimidazo[1,2-f][1,2,4]triazin-7-yl)-4-methylphenylsulfonamido)bicyclo[2.1.1]hexane-1-carboxylic acid], the IC50 was greater than 1000 nM in experiment [1], less than 100 nM in experiment [2] and 500 to 2000 nM in experiment [3].
Taken in the same sequence, the figures for `Cc1ccc(S(=O)(=O)NC23CCC(C(N)=O)(C2)C3)cc1-c1cnc2c(N)ncnn12` [Example 110, 4-(3-(4-Aminoimidazo[1,2-f][1,2,4]triazin-7-yl)-4-methylphenylsulfonamido)bicyclo[2.1.1]hexane-1-carboxamide trifluoroacetate salt] were greater than 1000 nM, less than 100 nM and 100 to 500 nM.
For the compound `Cc1ccc(S(=O)(=O)NC23CC(c4cnco4)(C2)C3)cc1-c1cnc2c(N)ncnn12` [Example 111, 3-(4-Aminoimidazo[1,2-f][1,2,4]triazin-7-yl)-4-methyl-N-(3-(oxazol-5-yl)bicyclo[1.1.1]pentan-1-yl)benzenesulfonamide trifluoroacetate salt], the IC50 was 100 to 500 nM in experiment [1], less than 100 nM in experiment [2] and 100 to 500 nM in experiment [3].
On to `Cc1ccc(S(=O)(=O)NC23CC(Cn4ccnc4)(C2)C3)cc1-c1cnc2c(N)ncnn12` [Example 112, N-(3-((1H-Imidazol-1-yl)methyl)bicyclo[1.1.1]pentan-1-yl)-3-(4-aminoimidazo[1,2-f][1,2,4]triazin-7-yl)-4-methylbenzenesulfonamide trifluoroacetate salt], for which the IC50 was 100 to 500 nM in experiment [1], less than 100 nM in experiment [2] and 100 to 500 nM in experiment [3].
In the case of `Cc1ccc(S(=O)(=O)NC23CC(Cn4cncn4)(C2)C3)cc1-c1cnc2c(N)ncnn12` [Example 113, N-(3-((1H-1,2,4-triazol-1-yl)methyl)bicyclo[1.1.]pentan-1-yl)-3-(4-aminoimidazo[1,2-f][1,2,4]triazin-7-yl)-4-methylbenzenesulfonamide trifluoroacetate salt], the figures for the IC50 in experiment [1], in experiment [2] and in experiment [3] were 100 to 500 nM, less than 100 nM and 500 to 2000 nM, respectively.
Taken in the same sequence, the figures for `Cc1ccc(S(=O)(=O)NC23CC(c4nccs4)(C2)C3)cc1-c1cnc2c(N)ncnn12` [Example 114, 3-(4-Aminoimidazo[1,2-f][1,2,4]triazin-7-yl)-4-methyl-N-(3-(thiazol-2-yl)bicyclo[1.1.1]pentan-1-yl)benzenesulfonamide trifluoroacetate salt] were 100 to 500 nM, less than 100 nM and 100 to 500 nM.
For `COC(=O)NC12CC(NS(=O)(=O)c3ccc(C)c(-c4cnc5c(N)ncnn45)c3)(C1)C2` [Example 115, Methyl 3-(3-(4-aminoimidazo[1,2-f][1,2,4]triazin-7-yl)-4-methylphenylsulfonamido)bicyclo[1.1.1]pentan-1-ylcarbamate trifluoroacetate salt] the same measures were 100 to 500 nM, less than 100 nM and 500 to 2000 nM.
For `Cc1ccc(S(=O)(=O)NC23CC(N4CCOCC4)(C2)C3)cc1-c1cnc2c(N)ncnn12` [Example 116, 3-(4-Aminoimidazo[1,2-f][1,2,4]triazin-7-yl)-4-methyl-N-(3-morpholinobicyclo[1.1.1]pentan-1-yl)benzenesulfonamide trifluoroacetate salt] the same measures were 100 to 500 nM, less than 100 nM and 500 to 2000 nM.
For the compound `Cc1ccc(S(=O)(=O)NC23CC(C)(C2)C3)cc1-c1cnc2c(N)ncnn12` [Example 117, 3-(4-Aminoimidazo[1,2-f][1,2,4]triazin-7-yl)-4-methyl-N-(3-methylbicyclo[1.1.1]pentan-1-yl)benzenesulfonamide], the IC50 in experiment [1] was 100 to 500 nM; in experiment [2], less than 100 nM; in experiment [3] it was 500 to 2000 nM.
Taken in the same sequence, the figures for `Cc1ccc(S(=O)(=O)N(C)C23CC(N)(C2)C3)cc1-c1cnc2c(N)ncnn12` [Example 118, N-(3-aminobicyclo[1.1.1]pentan-1-yl)-3-(4-aminoimidazo[1,2-f][1,2,4]triazin-7-yl)-N,4-dimethylbenzenesulfonamide trifluoroacetate salt] were greater than 1000 nM, less than 100 nM and 100 to 500 nM.
With `Cc1ccc(S(=O)(=O)NCC2(CO)CCOCC2)cc1-c1cnc2c(N)ncnn12` [Example 121, 3-(4-aminoimidazo[2,1-f][1,2,4]triazin-7-yl)-N-{[4-(hydroxymethyl)tetrahydro-2H-pyran-4-yl]methyl}-4-methylbenzenesulfonamide], the IC50 in experiment [1] (Homo sapiens) is greater than 1000 nM; in experiment [2], 100 to 500 nM; in experiment [3], greater than 2000 nM.
For `Cc1ccc(S(=O)(=O)NC2CCC(F)(F)CC2)cc1-c1cnc2c(N)ncnn12` [Example 122, 3-(4-aminoimidazo[2,1-f][1,2,4]triazin-7-yl)-N-(4,4-difluorocyclohexyl)-4-methylbenzenesulfonamide] the same measures were 100 to 500 nM, less than 100 nM and 500 to 2000 nM.
Taken in the same sequence, the figures for `Cc1ccc(S(=O)(=O)N[C@H]2COC[C@@H]2O)cc1-c1cnc2c(N)ncnn12` [Example 123, 3-(4-aminoimidazo[2,1-f][1,2,4]triazin-7-yl)-N-[(3S,4R)-4-hydroxytetrahydrofuran-3-yl]-4-methylbenzenesulfonamide] were 500 to 1000 nM, less than 100 nM and 500 to 2000 nM.
In the case of `Cc1ccc(S(=O)(=O)N[C@H]2CC[C@](O)(C(F)(F)F)CC2)cc1-c1cnc2c(N)ncnn12` [Example 124, 3-(4-aminoimidazo[2,1-f][1,2,4]triazin-7-yl)-N-[cis-4-hydroxy-4-(trifluoromethyl)cyclohexyl]-4-methylbenzenesulfonamide], the IC50 in experiment [1] was 100 to 500 nM; in experiment [2], less than 100 nM; in experiment [3], 100 to 500 nM.
As to `Cc1ccc(S(=O)(=O)N[C@H]2CC[C@H](C(C)(C)O)CC2)cc1-c1cnc2c(N)ncnn12` [Example 125, 3-(4-aminoimidazo[2,1-f][1,2,4]triazin-7-yl)-N-[trans-4-(1-hydroxy-1-methylethyl)cyclohexyl]-4-methylbenzenesulfonamide], the concentration for half-maximal inhibition (IC50) was greater than 1000 nM in experiment [1] (Homo sapiens), less than 100 nM in experiment [2] and 500 to 2000 nM in experiment [3].
